Source: patent US11932653B2, “Lycorine derivative, and pharmaceutical composition and use thereof” (priority 2018, dated 2024)
pEC50: −log10 of the molar value. One block for each compound: values may come before it.

What was measured:
EV71 = assay: In-vitro experiment against EV71 virus (RD cells, MTT); format: cell-based; settings: for pEC50: Enterovirus A, RD cells infected with 100x TCID50 EV71, compound added after 2 hrs, MTT at 48 hrs; for SI: selectivity index, EV71, RD cells
Experimental: (§1) RD cells were seeded into a 96-well plate (10^4 cells/well), and infected with 100× TCID50 of EV71 viruses. After 2 hrs, various concentrations of the derivative were added. […] Uninfected cells were also given various concentrations of the derivative to determine the CC50.

[1] = Cytotoxicity in uninfected RD cells (CC50, MTT); format: cell-based; settings: human, Table 1
Experimental: as §1
(§2) RD cells were seeded into a 96-well plate (10^4 cells/well), and infected with 100×TCID50 of CAV16 viruses. After 2 hrs, various concentrations of the derivative were added. […] Uninfected cells were also given various concentrations of the derivative to determine the CC50.

CAV16 = assay: In-vitro experiment against Coxsackievirus A16 (CAV16) (RD cells, MTT); format: cell-based, Coxsackievirus Virus A16 (CAV16); settings: for pEC50: Coxsackievirus, RD cells infected with 100x TCID50 CAV16, compound added after 2 hrs, MTT at 48 hrs; for SI: selectivity index, CAV16, RD cells
Experimental: as §2

[2] = Toxicity test in ICR mice after single administration by intraperitoneal injection; format: in vivo; settings: for minimum lethal dose: 10-day-old ICR mice, single intraperitoneal injection, observed 14 days; for MTD at 14 days: both sexes, ICR; for MTD at 14 days / Weight on day 1 after administration: mouse, in vivo, ip
Experimental: 22 10-day-old ICR mice were randomly assigned to 17 groups, and given Compound 6 once by intraperitoneal injection at a dosage of 0.625, 1.25, 2.5, 5, 10, 20, 40, 80, 100, 160, 200, 250, 300, 470, 500, 1000, or 2000 mg/kg. 1-2 animals were included in each group, and the male and female mice were administered alternately. […] The dead animals are necropsied and the changes in main organs were observed. On day 1 after administration, the weight of the animals in the 160 mg/kg group is decreases by 0.3 g, and the weight of the animals in the 0.625, 1.25, 2.5, 5, 10, 20, 40, 80, 100 mg/kg group is increased, compared to the day of administration. Under the conditions in this experiment, ICR mice were given Compound 6 once by intraperitoneal injection. The minimum lethal dose was 200 mg/kg and the maximum tolerated dose was 160 mg/kg.
24 10-day-old ICR mice were randomly assigned to 19 groups, and given Compound 6 once by intraperitoneal injection at a dosage of 0.625, 1.25, 2.5, 5, 10, 20, 40, 60, 80, 100, 120, 136, 160, 270, 320, 500, 690, 1000, or 2000 mg/kg. 1-2 animals were included in each group, and the male and female mice were administered alternately. […] The dead animals are necropsied and the changes in main organs were observed. […] Under the conditions in this experiment, ICR mice were given Compound 20 once by intraperitoneal injection.

[3] = tested on: Salmonella typhimurium TA100; assay: Test of reverse mutation in histidine-deficient Salmonella typhimurium, strain TA100; format: cell-based; settings: for Number of colonies TA100(+S9): solvent control 170.7 ± 10.9
Experimental: (§3) The mutagenic effect of Compound 6 on the strains TA100 and TA102 was detected by determining the reverse mutation in histidine-deficient Salmonella typhimurium by pre-loaded culture dish method. The dosage of Compound 6 is 8, 40, 200, 1000, or 5000 μg/dish under activated and non-activated conditions, and the mutagenic effects on TA100 and TA102 were tested.

[4] = tested on: Salmonella typhimurium TA102; assay: Test of reverse mutation in histidine-deficient Salmonella typhimurium, strain TA102; format: cell-based; settings: for Number of colonies TA102(−S9): solvent control 225.0 ± 7.5; for Number of colonies TA102(+S9): solvent control 236.5 ± 5.0
Experimental: as §3

[5] = 8-5000 μg/dish, activated and non-activated conditions

- pEC50 (CAV16): 6.24
SMILES: O=C(CSc1ccccc1)OC1C(O)C=C2CCN3Cc4cc5c(cc4C1C23)OCO5 (stereo not drawn) [Compound 2, 1-phenylthioacetyl-lycorine]
- pEC50 (EV71): 5.78
- SI (EV71): 69.35
- CC50 at 48 h [1]: 114000 nM
- SI (CAV16): 200.73

SMILES: O=C(COc1ccc(Cl)cc1)OC1C(O)C=C2CCN3Cc4cc5c(cc4C1C23)OCO5 (stereo not drawn) [Compound 3, 1-(4-chloro-phenoxyacetyl)-lycorine]
- pEC50 (EV71): 5.89
- SI (EV71): 139.85
- CC50 at 48 h [1]: 154000 nM

SMILES: O=C(CCCOc1ccccc1)OC1C(O)C=C2CCN3Cc4cc5c(cc4C1C23)OCO5 (stereo not drawn) [Compound 4, 1-(4-phenoxybutyryl)-lycorine]
- pEC50 (EV71): 5.75
- SI (EV71): 84.84
- CC50 at 48 h [1]: 150000 nM

SMILES: O=C(CCOc1ccccc1)OC1C(O)C=C2CCN3Cc4cc5c(cc4C1C23)OCO5 (stereo not drawn) [Compound 5, 1-(3-phenoxypropionyl)-lycorine]
- pEC50 (EV71): 5.84
- SI (EV71): 92.43
- CC50 at 48 h [1]: 134000 nM

SMILES: O=C(COc1ccc(F)cc1)OC1C(O)C=C2CCN3Cc4cc5c(cc4C1C23)OCO5 (stereo not drawn) [Compound 6, 1-(4-fluoro-phenoxyacetyl)-lycorine]
- pEC50 (EV71): 5.90
- SI (EV71): 103.30
- CC50 at 48 h [1]: 131000 nM
- minimum lethal dose [2]: 200 mg/kg
- MTD at 14 days [2]: 160 mg/kg
- Weight on day 1 after administration ([2]; 0.625 mg/kg): 7.3
- Weight on day 1 after administration ([2]; 5 mg/kg): 6.9
- Weight on day 1 after administration ([2]; 10 mg/kg): 6.5
- Weight on day 1 after administration ([2]; 20 mg/kg): 7.5
- Weight on day 1 after administration ([2]; 40 mg/kg): 7.7
- Weight on day 1 after administration ([2]; 80 mg/kg): 7.3
- Weight on day 1 after administration ([2]; 100 mg/kg): 7.3
- Weight on day 1 after administration ([2]; 160 mg/kg): 6.3
- Number of colonies TA100(−S9) ([3]; 8 μg/dish, solvent control 165.3 ± 10.7): 152.7 ± 9.4
- Number of colonies TA100(+S9) ([3]; 8 μg/dish): 159.3 ± 11.3
- Number of colonies TA100(−S9) ([3]; 40 μg/dish, solvent control 165.3 ± 10.7): 141.8 ± 5.9
- Number of colonies TA100(+S9) ([3]; 40 μg/dish): 158.7 ± 10.7
- Number of colonies TA100(−S9) ([3]; 200 μg/dish, solvent control 165.3 ± 10.7): 152.7 ± 9.5
- Number of colonies TA100(+S9) ([3]; 200 μg/dish): 158.5 ± 11.5
- Number of colonies TA100(−S9) ([3]; 1000 μg/dish, solvent control 165.3 ± 10.7): 113.0 ± 14.2
- Number of colonies TA100(+S9) ([3]; 1000 μg/dish): 127.7 ± 10.1
- Number of colonies TA100(−S9) ([3]; 5000 μg/dish, solvent control 165.3 ± 10.7): 110.5 ± 7.8
- Number of colonies TA100(+S9) ([3]; 5000 μg/dish): 114.7 ± 3.8
- mutagenic effect on TA100 [3, 5]: negative
- Number of colonies TA102(−S9) ([4]; 8 μg/dish): 223.0 ± 9.1
- Number of colonies TA102(+S9) ([4]; 8 μg/dish): 235.0 ± 9.6
- Number of colonies TA102(−S9) ([4]; 40 μg/dish): 205.0 ± 14.6
- Number of colonies TA102(+S9) ([4]; 40 μg/dish): 222.5 ± 9.3
- Number of colonies TA102(−S9) ([4]; 200 μg/dish): 192.8 ± 18.6
- Number of colonies TA102(+S9) ([4]; 200 μg/dish): 208.3 ± 6.8
- Number of colonies TA102(−S9) ([4]; 1000 μg/dish): 182.3 ± 10.3
- Number of colonies TA102(+S9) ([4]; 1000 μg/dish): 195.2 ± 8.6
- Number of colonies TA102(−S9) ([4]; 5000 μg/dish): 147.2 ± 20.3
- Number of colonies TA102(+S9) ([4]; 5000 μg/dish): 180.7 ± 11.7
- mutagenic effect on TA102 [4, 5]: negative

SMILES: O=C(COc1ccc(Br)cc1)OC1C(O)C=C2CCN3Cc4cc5c(cc4C1C23)OCO5 (stereo not drawn) [Compound 7, 1-(4-bromo-phenoxyacetyl)-lycorine]
- pEC50 (EV71): 5.83
- SI (EV71): 70.36
- CC50 at 48 h [1]: 103000 nM

SMILES: O=C(COc1ccc([N+](=O)[O-])cc1)OC1C(O)C=C2CCN3Cc4cc5c(cc4C1C23)OCO5 (stereo not drawn) [Compound 8, 1-(4-nitro-phenoxyacetyl)-lycorine]
- pEC50 (EV71): 5.91
- SI (EV71): 85.67
- CC50 at 48 h [1]: 105000 nM

SMILES: O=C(COc1ccc(I)cc1)OC1C(O)C=C2CCN3Cc4cc5c(cc4C1C23)OCO5 (stereo not drawn) [Compound 9, 1-(4-iodo-phenoxyacetyl)-lycorine]
- pEC50 (EV71): 5.74
- SI (EV71): 54.15
- CC50 at 48 h [1]: 99600 nM

SMILES: CC(C)c1ccc(OCC(=O)OC2C(O)C=C3CCN4Cc5cc6c(cc5C2C34)OCO6)cc1 (stereo not drawn) [Compound 10, 1-(4-isopropyl-phenoxyacetyl)-lycorine]
- pEC50 (EV71): 5.78
- SI (EV71): 60.63
- CC50 at 48 h [1]: 101000 nM

SMILES: O=C(CSc1ccc(Cl)cc1)OC1C(O)C=C2CCN3Cc4cc5c(cc4C1C23)OCO5 (stereo not drawn) [Compound 11, 1-(4-chloro-phenylthioacetyl)-lycorine]
- pEC50 (EV71): 5.84
- SI (EV71): 89.40
- CC50 at 48 h [1]: 131000 nM

SMILES: Cc1ccc(OCC(=O)OC2C(O)C=C3CCN4Cc5cc6c(cc5C2C34)OCO6)cc1 (stereo not drawn) [Compound 12, 1-(4-methylphenoxyacetyl)-lycorine]
- pEC50 (EV71): 5.82
- SI (EV71): 87.73
- CC50 at 48 h [1]: 134000 nM

SMILES: Cc1ccc(OCC(=O)OC2C(O)C=C3CCN4Cc5cc6c(cc5C2C34)OCO6)c(C)c1 (stereo not drawn) [Compound 13, 1-(2,4-dimethyl-phenoxyacetyl)-lycorine]
- pEC50 (EV71): 5.81
- SI (EV71): 95.33
- CC50 at 48 h [1]: 149000 nM

SMILES: O=C(COc1ccccc1Cl)OC1C(O)C=C2CCN3Cc4cc5c(cc4C1C23)OCO5 (stereo not drawn) [Compound 14, 1-(2-chloro-phenoxyacetyl)-lycorine]
- pEC50 (EV71): 5.79
- SI (EV71): 89.10
- CC50 at 48 h [1]: 145000 nM

SMILES: O=C(COc1cccc(Cl)c1)OC1C(O)C=C2CCN3Cc4cc5c(cc4C1C23)OCO5 (stereo not drawn) [Compound 15, 1-(3-chloro-phenoxyacetyl)-lycorine]
- pEC50 (EV71): 5.76
- SI (EV71): 87.61
- CC50 at 48 h [1]: 152000 nM

SMILES: O=C(COc1ccc(Cl)cc1Cl)OC1C(O)C=C2CCN3Cc4cc5c(cc4C1C23)OCO5 (stereo not drawn) [Compound 16, 1-(2,4-dichloro-phenoxyacetyl)-lycorine]
- pEC50 (EV71): 5.77
- SI (EV71): 75.94
- CC50 at 48 h [1]: 130000 nM

SMILES: O=C(COc1ccccc1[N+](=O)[O-])OC1C(O)C=C2CCN3Cc4cc5c(cc4C1C23)OCO5 (stereo not drawn) [Compound 17]
- pEC50 (EV71): 5.77
- SI (EV71): 91.37
- CC50 at 48 h [1]: 156000 nM

SMILES: COc1ccc(OCC(=O)OC2C(O)C=C3CCN4Cc5cc6c(cc5C2C34)OCO6)cc1 (stereo not drawn) [Compound 18, 1-(4-methoxy-phenoxyacetyl)-lycorine]
- pEC50 (EV71): 5.78
- SI (EV71): 97.65
- CC50 at 48 h [1]: 161000 nM

SMILES: O=C(COc1ccc2ccccc2c1)OC1C(O)C=C2CCN3Cc4cc5c(cc4C1C23)OCO5 (stereo not drawn) [Compound 19, 1-(2-naphthyl-phenoxyacetyl)-lycorine]
- pEC50 (EV71): 5.71
- SI (EV71): 82.94
- CC50 at 48 h [1]: 163000 nM

SMILES: O=C(CSc1ccc(F)cc1)OC1C(O)C=C2CCN3Cc4cc5c(cc4C1C23)OCO5 (stereo not drawn) [Compound 20, 1-(4-fluoro-phenylthioacetyl)-lycorine]
- minimum lethal dose [2]: 160 mg/kg
- MTD at 14 days [2]: 136 mg/kg
- Weight on day 1 after administration ([2]; 0.625 mg/kg): 5.2
- Weight on day 1 after administration ([2]; 1.25 mg/kg): 6.6
- Weight on day 1 after administration ([2]; 5 mg/kg): 6.4
- Weight on day 1 after administration ([2]; 10 mg/kg): 6.5
- Weight on day 1 after administration ([2]; 20 mg/kg): 5.9
- Weight on day 1 after administration ([2]; 40 mg/kg): 6.8
- Weight on day 1 after administration ([2]; 60 mg/kg): 7
- Weight on day 1 after administration ([2]; 100 mg/kg): 6.8
- Weight on day 1 after administration ([2]; 136 mg/kg): 6.7

SMILES: O=C(CCc1ccccc1)OC1C(O)C=C2CCN3Cc4cc5c(cc4C1C23)OCO5 (stereo not drawn) [Compound 23, 1-(3-phenylpropionyl)-lycorine]
- pEC50 (EV71): 5.76
- SI (EV71): 74.28
- CC50 at 48 h [1]: 129000 nM

SMILES: O[C@H]1[C@H]2c3cc4c(cc3CN3CCC(=C[C@@H]1O)[C@H]23)OCO4 [Lycorine]
- pEC50 (EV71): 5.65
- SI (EV71): 46.24
- CC50 at 48 h [1]: 105000 nM
- pEC50 (CAV16): 5.80
- SI (CAV16): 66.57

SMILES: [N-]=[N+]=[N-].[Na+] [NaN3, reference compound]
- Number of colonies TA100(−S9) ([3]; 1.5 μg/dish, positive control): >1000
